Results published in ChEMBL document CHEMBL5678802, “Small-molecule p21-activated kinase inhibitor PF-3758309 is a potent inhibitor of oncogenic signaling and tumor growth” (Proc Natl Acad Sci U S A, 2010).
The source made the active and inactive calls. No cut-off for these calls is given here.

What was measured:
[1] = molecular target: T1, Serine/threonine-protein kinase PAK 4 (Homo sapiens, UniProt O96013); assay: Inhibition of N-terminal 6His-tagged human recombinant PAK4 kinase domain (300 to 591 residues) using EVPRRKSLVGTPYWM peptide as substrate assessed as inhibition constant in presence of ATP by biochemical assay
[2] = molecular target: T1, Serine/threonine-protein kinase PAK 4; assay: Inhibition of PAK4 Kinase domain (291 to 591 residues) (unknown origin) transfected in TR-293-KDG cells using GEFH1 as substrate assessed as inhibition of PAK4-dependent phosphorylation of GEFH1 at S810 residue incubated for 3 hrs by ELISA; format: cell-based
[3] = test system: HCT-116; assay: Effect on phosphorylated GEF-H1 level in human HCT-116 cells at 1 uM incubated for 15 mins by Western blot analysis; format: functional, cell-based
[4] = test system: HCT-116; assay: Effect on phosphorylated PAK4 level in human HCT-116 cells at 1 uM incubated for 15 mins by Western blot analysis; format: functional, cell-based

T1 sequence (O96013 whole entry, the tested form may be a part): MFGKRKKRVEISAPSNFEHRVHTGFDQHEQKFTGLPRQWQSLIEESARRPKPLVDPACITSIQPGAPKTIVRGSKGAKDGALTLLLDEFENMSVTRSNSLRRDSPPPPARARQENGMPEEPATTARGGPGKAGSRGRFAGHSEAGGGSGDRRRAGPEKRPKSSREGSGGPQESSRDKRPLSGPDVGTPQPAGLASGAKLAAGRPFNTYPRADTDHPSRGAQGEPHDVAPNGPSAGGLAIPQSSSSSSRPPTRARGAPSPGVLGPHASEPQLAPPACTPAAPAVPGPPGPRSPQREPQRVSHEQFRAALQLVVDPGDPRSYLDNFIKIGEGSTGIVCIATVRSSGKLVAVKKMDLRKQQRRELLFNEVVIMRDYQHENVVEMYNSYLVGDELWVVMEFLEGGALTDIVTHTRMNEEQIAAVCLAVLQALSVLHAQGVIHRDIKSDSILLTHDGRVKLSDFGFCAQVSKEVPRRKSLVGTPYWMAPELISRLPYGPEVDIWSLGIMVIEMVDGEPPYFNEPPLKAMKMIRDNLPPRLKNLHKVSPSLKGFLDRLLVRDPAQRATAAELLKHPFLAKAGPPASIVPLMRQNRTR

Row | Ki [1] | IC50 [2] | SMILES | Activity [3] | inhibition [4]
1 | 52 µM | 10 µM | C[C@@H]1CN(C(=O)N2Cc3c(NC(=O)c4ccccn4)n[nH]c3C2(C)C)[C@@H](C)CN1CC1CCOCC1 | – | –
2 | – | – | COc1ccc(C2=NC(c3ccc(Cl)cc3)C(c3ccc(Cl)cc3)N2C(=O)N2CCNC(=O)C2)c(OC(C)C)c1 (centres undefined) | inactive | inactive
